Patent publication US20140171445A1, “TREATMENT AND PREVENTION OF DISEASES MEDIATED BY MICROORGANISMS VIA DRUG-MEDIATED MANIPULATION OF THE EICOSANOID BALANCE” (priority 2011, published 2014)

Key:
[1] = test system: Mycobacterium tuberculosis; set-up: species or system C57BL6 mice; details: mouse, in vivo
tuberculosis = details: intranasal; Antonelli et al., J. Clin. Investigation 2010; cited from earlier work
[2] = test system: Mycobacterium tuberculosis

Compound | colony forming units (CFU) in lungs [1] | effect on tuberculosis in mice (tuberculosis) | mice that survived past day 53 post-infection ([2]; M. tuberculosis-infected B6 mice treated with poly-ICLC alone, five mice) | mean weight as % of starting weight ([2]; M. tuberculosis-infected B6 mice, after 31 days, treated with intranasal poly-ICLC twice weekly)
poly-ICLC | approximately 8.9 log^10 CFU | exacerbate tuberculosis | None | approximately 74%
CC(c1cc2ccccc2s1)N(O)C(N)=O (centres unmarked) [zileuton] | approximately 7.6 log^10 CFU |  |  | 
